Data: ChEMBL document CHEMBL1141247, “Hydroxyalkenylresorcinols from Stylogyne turbacensis” (J Nat Prod, 2007)

Columns and labels:
[1] = test system: Trypanosoma cruzi; experiment: Antitrypanosomal activity against Trypanosoma cruzi; assay type: functional, organism-based
[2] = test system: Leishmania donovani; experiment: Antileishmanial activity against Leishmania donovani; assay type: functional, organism-based
[3] = test system: MCF7; experiment: Cytotoxicity against human MCF7 cells; assay type: functional, cell-based
[4] = test system: NCI-H460; experiment: Cytotoxicity against human NCI-H460; assay type: functional, cell-based
[5] = test system: Vero; experiment: Cytotoxicity against […] Vero cells by MTT assay; assay type: cell-based, Homo sapiens; conditions: Chlorocebus sabaeus
[6] = test system: NCI-H460; experiment: Cytotoxicity against human NCI-H460 at 20 ug/ml; assay type: functional

Row | IC50 [1] [µM] | IC50 [2] [µM] | Compound | IC50 [3] [µM] | IC50 [4] [µM] | IC50 [5] [µM] | inhibition at 20 µg/mL [6] [%]
1 | 30 | 0.6 | CCCCC/C=C\C/C=C\CCCCCCCc1cc(O)cc(O)c1 | 8.7 | 8.7 | 148 | –
2 | 138 | 7 | CCCCCC[C@H](O)C/C=C\CCCCCCCc1cc(O)cc(O)c1 | 14 | 16 | 76 | –
3 | 22 | 3 | CC/C=C\C[C@@H](O)CC/C=C\CCCCCCCc1cc(O)cc(O)c1 | 22 | > 10 | 30 | < 50
4 | 117 | – | CCCCC/C=C\C/C=C\CCCCCCCc1cc(OC(C)=O)cc(OC(C)=O)c1 | – | – | 124 | –
5 | 117 | – | CC/C=C\C/C=C\C/C=C\CCCCCCCc1cc(OC(C)=O)cc(OC(C)=O)c1 | – | – | 138 | –
6 | 102 | – | CCCCCC[C@@H](C/C=C\CCCCCCCc1cc(OC(C)=O)cc(OC(C)=O)c1)OC(C)=O | – | – | 75 | –
7 | 107 | – | CC/C=C\C[C@H](CC/C=C\CCCCCCCc1cc(OC(C)=O)cc(OC(C)=O)c1)OC(C)=O | – | – | 82 | –
8 | 25 | 0.6 | CC/C=C\C/C=C\C/C=C\CCCCCCCc1cc(O)cc(O)c1 | 8.7 | 8.7 | 104 | –
9 | 6 | – | CC1CS(=O)(=O)CCN1/N=C/c1ccc([N+](=O)[O-])o1 (stereo unspecified) [NIFURTIMOX] | – | – | – | –

Row | Compound | IC50 [1] [µM] | IC50 [2] [µM] | IC50 [3] [µM] | IC50 [4] [µM] | IC50 [5] [µM] | inhibition at 20 µg/mL [6] [%]
10 | C[C@@H]1[C@H](O)[C@@H](C)/C=C/C=C/C=C/C=C/C=C/C=C/C=C/[C@H](O[C@@H]2O[C@H](C)[C@@H](O)[C@H](N)[C@@H]2O)C[C@@H]2O[C@](O)(C[C@@H](O)C[C@@H](O)[C@H](O)CC[C@@H](O)C[C@@H](O)CC(=O)O[C@H]1C)C[C@H](O)[C@H]2C(=O)O [AMPHOTERICIN B] | – | 0.09 | – | – | – | –
